# Source: patent US7378387B2, “Method of suppressing immune response by reducing intracellular content of glutathione in macrophages and monocytes” (Ajinomoto Co., Inc., priority 1997, dated 2008)
# Columns and labels:
# [1] = system: peritoneal exudate cells (macrophages); test: Induction of oxidative and reductive macrophages, monochlorobimane/ACAS (Example 1); format: in vivo; conditions: LPS 20 μg or lentinan 100 μg three times every two days into the abdominal cavity of a mouse
# Method: These were clarified by adhering peritoneal exudate cells to the plastic surface, then reacting the same with 10 μM of monochlorobimane at 37° C. for 30 minutes and conducting analysis with Adherent Cell Analyzing System (ACAS). The increase in the amounts of oxidative macrophages can easily be measured visually from the fact that almost no reaction product is observed, that is, gray or blue image is obtained, and the increase in the amounts of reductive macrophages from the fact that the red or yellow image is obtained, respectively.
# IL-12 = IL-12 production by MΦ induced by intraperitoneal injection of substances (Example 7); format: in vivo, mouse
# Method: The amount of IL-12 was determined through bioassay using cells of human T cell strain 2D6 (J. Leukocyte Biology, vol. 61, p. 346, 1997).
# 2D6 cells which had been incubated in an RPMI 1640 medium containing 500 pg/ml of recombinant human IL-12, 50 μM of 2-mercaptoethanol and 10% FCS (fetal calf serum) were moved to a tube, and centrifugally washed three times with the above-mentioned medium without IL-12 and cell density was adjusted to 1×10^5/ml. The cell suspension was added in an amount of 100 μl each to a 96-well flat bottom plate containing a sample serially diluted in advance with an RPMI 1640 medium containing 50 μM of 2-mercaptoethanol and 10% FCS in an amount of 100 μl each. Subsequently, the mixture was charged into a 5% […] incubator of 37° C., and incubated for 48 hours. For final 6 hours, ^3H-TdR was pulsed (a substance adjusted to 370 kBq/ml in an RPMI 1640 medium containing 50 μM of 2-mercaptoethanol and 10% FCS was added in an amount of 50 μl each). The cells a harvested, and the radioactivity was measured using a β counter (Matrix 96, supplied by Packard).
# It was examined whether there is a difference in the IL-12 production between LNT-induced MΦ and LPS-induced MΦ. […] Next, the same analysis was conducted using MΦ induced by intraperitoneally injecting substances for changing the GSH content in cells.
# [2] = system: adjuvant-induced arthritis; test: Adjuvant-induced arthritis (AA) in rats, joint swelling (Examples 18 and 19); format: in vivo, Lewis rats
# Method: Adjuvant-induced arthritis was triggered in Lewis rats in a conventional manner; and the effects of chemical agents were examined in the animals. Adjuvant-induced arthritis is well known as an experimental arthritis inducible in rats [Taurog et al., Meth. Enzymol. 162, 339-355 (1988)]. […] An adjuvant is administered at 1 mg/0.1 ml per rate at a site of caudal root. The edema reaches its peak about 2 to 3 weeks after the administration of the adjuvant. The edema is triggered by inflammatory infiltration of monocytes. Swollen joints are measured with a micrometer every day; comparing the diameters of the joints prior to and after adjuvant administration and after initiation of the treatment with chemical agents with the diameters of the joints in the control group, the effects of the chemical agents were expressed as the ratio in % of joint swelling in the experimental groups to joint swelling in the control group. The effects were determined on day 15 after adjuvant administration. The chemical agents were given, starting the day next to the day of adjuvant administration, and every 3 days thereafter.
# A single dose is 1 mg/kg for (NAC)2 and (NAC-OMe)2; 100 mg/kg for NAC; and 0.1 mg/kg for lentinan.
# Adjuvant-induced arthritis was induced in Lewis rats in a conventional manner. In the same manner as in Example 11, the effects of chemical agents were examined in these rats. The conditions were the same as described above.
# [3] = system: spontaneous onset of insulin-dependent diabetes mellitus; test: Onset of diabetes mellitus in NOD mice dosed at age 3 to 6 weeks (Example 23); format: in vivo; conditions: intraperitoneal, three times per week, nine times
# Method: NOD mice purchased from Nippon Clair, Co. were naturally mated together. Among the off spring mice, a colony of NOD mice with a high frequency of the spontaneous onset of insulin-dependent diabetes mellitus was established. Female NOD mice from the colony were used for the present experiment. […] Urine glucose was detected, using Uropaper (BM Test Glucose 5000, manufactured by Yamanouchi Pharmaceuticals, Co. Ltd.). Chemical agents were administered intraperitoneally, unless otherwise stated. […] (NAC)2 and (NAC-OMe)2 were at a single dose of 20 μg/animal; and NAC and GSHOEt were at a single dose of 2 μg/animal; and a single dose of lentinan was 0.1 mg/kg.
# [4] = system: spontaneous onset of insulin-dependent diabetes mellitus; test: Onset of diabetes mellitus in NOD mice dosed at age 3 to 6 and 9 to 11 weeks (Example 24); format: in vivo; conditions: route not given, 0.1 mg/kg; 15 times in total; judged on week 22; saline 60
# From the text: NOD mice purchased from Nippon Clair, Co. were naturally mated together. Among the off spring mice, a colony of NOD mice with a high frequency of the spontaneous onset of insulin-dependent diabetes mellitus was established. Female NOD mice from the colony were used for the present experiment. […] Urine glucose was detected, using Uropaper (BM Test Glucose 5000, manufactured by Yamanouchi Pharmaceuticals, Co. Ltd.). The onset was judged on week 22.
# [5] = system: spontaneous onset of insulin-dependent diabetes mellitus; test: Onset of diabetes mellitus in NOD mice dosed at age 9 to 11 weeks (Example 25); format: in vivo; conditions: route not given, nine times, judged on week 22, saline 67
# From the text: NOD mice purchased from Nippon Clair, Co. were naturally mated together. Among the off spring mice, a colony of NOD mice with a high frequency of the spontaneous onset of insulin-dependent diabetes mellitus was established. Female NOD mice from the colony were used for the present experiment. Chemical agents were orally or intraperitoneally administered to the NOD mice aged 9 to 11 weeks three times per week, in total nine times; and based on the test results of urine glucose, positive or negative, the onset of diabetes mellitus was followed once per week. Urine glucose was detected, using Uropaper (BM Test Glucose 5000, manufactured by Yamanouchi Pharmaceuticals, Co. Ltd.). The onset was judged on week 22; the doses were the same as in Example 24.
substance,measurement,setting,value
Lentinan [reference compound],"type of macrophages induced (GSH by monochlorobimane, ACAS)",[1],reductive macrophages were induced
same,IL-12 production,"IL-12; MΦ induced by intraperitoneal injection of the substance, stimulation with LPS and IFNγ","1,312 pg/ml"
same,"IL-12 production of substance-induced MΦ, without DEM or IL-4",IL-12; baseline values of the DEM and IL-4 experiments,828 pg/mL
same,Ratio in % of joint swelling in experimental groups to joint swelling in control group,"[2]; Table 3, day 15 after adjuvant, every 3 days, single dose 1 mg/kg (NAC)2 and (NAC-OMe)2, 100 mg/kg NAC, 0.1 mg/kg lentinan",52%
same,Ratio in % of joint swelling in experimental groups to joint swelling in control group,"[2]; Table 4, intravenous",50%
same,"Frequency (%) of onset of diabetes mellitus, on age 18 weeks",[3]; saline 50,10%
same,"Frequency (%) of onset of diabetes mellitus, on age 22 weeks",[3]; saline 80,20%
same,Frequency (%) of onset of diabetes mellitus,[4],0%
same,Frequency (%) of onset of diabetes mellitus,[5],50%
